Measurements reported in patent publication US20090068299A1.

Experiments:
ERβ [1] = target: T1, ERβ (Homo sapiens, UniProt Q92731); settings: in the presence of ERβ
ERβ [2] = target: T1, ERβ; assay: Repression of TNF-α activation of TNF-RE tkLuc in U2OS cells with ERβ; format: cell-based; parameters: expressed in transfected cells
ERβ [3] = target: T1, ERβ; assay: ERE-tk-Luc luciferase activation in U2OS cells with ERβ; format: cell-based; parameters: expressed in transfected cells; host or cells: U2OS (human osteosarcoma); settings: competition
TNF-RE tkLuc = assay: Effect of antiestrogens on TNF-RE tkLuc; format: cell-based, human; settings: for effect on the repression induced by E2: TNF-RE tkLuc; for activation of TNF-RE tkLuc: antiestrogens, in contrast to E2
[4] = tested on: estrogen receptor-positive breast cancer; settings: five years of therapy; cited from earlier work
[5] = tested on: primary invasive breast cancer; settings: women at high risk for breast cancer; cited from earlier work

T1 sequence (Q92731 whole entry): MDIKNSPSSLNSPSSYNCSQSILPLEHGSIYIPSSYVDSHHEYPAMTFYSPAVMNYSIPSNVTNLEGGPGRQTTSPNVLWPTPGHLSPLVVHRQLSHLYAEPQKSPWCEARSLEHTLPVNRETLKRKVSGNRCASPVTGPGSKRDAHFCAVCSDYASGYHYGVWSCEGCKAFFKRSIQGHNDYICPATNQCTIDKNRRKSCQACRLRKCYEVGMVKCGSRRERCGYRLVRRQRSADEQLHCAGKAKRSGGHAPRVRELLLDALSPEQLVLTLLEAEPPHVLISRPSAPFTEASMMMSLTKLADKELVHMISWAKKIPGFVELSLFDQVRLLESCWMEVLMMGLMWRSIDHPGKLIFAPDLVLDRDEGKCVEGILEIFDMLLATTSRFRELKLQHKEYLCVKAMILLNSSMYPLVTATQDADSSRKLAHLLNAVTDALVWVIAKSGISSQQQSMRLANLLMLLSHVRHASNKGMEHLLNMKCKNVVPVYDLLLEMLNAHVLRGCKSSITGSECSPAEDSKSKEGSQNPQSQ

C[C@]12CC[C@@H]3c4ccc(O)cc4CC[C@H]3[C@@H]1CC[C@@H]2O [E2, estradiol]
repression of TNF-α activation of TNF-RE tkLuc (ERβ [1]): 60-80%
repression of TNF-α activation of TNF-RE (ERβ [2]): 100%

O=C(c1ccc(OCCN2CCCCC2)cc1)c1c(-c2ccc(O)cc2)sc2cc(O)ccc12 [raloxifene]
stimulatory effect of Pueraria lobata on the ERE with ERβ in the presence of the SERM antagonist (FIG. 6) (ERβ [3]): inhibited
effect on the repression induced by E2 (TNF-RE tkLuc): abolished the repression induced by E2
activation of TNF-RE tkLuc (TNF-RE tkLuc): 2 fold

CC/C(=C(\c1ccccc1)c1ccc(OCCN(C)C)cc1)c1ccccc1 [tamoxifen]
effect on the repression induced by E2 (TNF-RE tkLuc): abolished the repression induced by E2
activation of TNF-RE tkLuc (TNF-RE tkLuc): 2 fold
reduction of mortality from breast cancer [4]: 22%
reduction of the risk of recurrences [4]: 42%
reduction of the risk of primary invasive breast cancer [5]: 49%

C[C@]12CC[C@@H]3c4ccc(O)cc4C[C@@H](CCCCCCCCC[S+]([O-])CCCC(F)(F)C(F)(F)F)[C@H]3[C@@H]1CC[C@@H]2O (stereo partly drawn) [ICI 182, 780]
effect on the repression induced by E2 (TNF-RE tkLuc): abolished the repression induced by E2
activation of TNF-RE tkLuc (TNF-RE tkLuc): 2 fold
